Data set [1] can be described thus: Two-compartment IV PK model fitted to published human bolus psilocybin IV data. The conditions noted are these: psilocin after 1 mg psilocybin IV, fitted estimate. The procedure:
All analysis was performed using the software R and RStudio, with models being defined using analytical and ODE solutions.
Systemic PK parameters were derived for published human bolus psilocybin IV data and human infusion simulations were performed over a range of doses to identify infusion regimens that achieved the target profile.
Human IV PK data for psilocin after psilocybin was administered was taken from Hasler et al. “Determination of psilocin and 4-hydroxyindole-3-acetic acid in plasma by HPLC-ECD and pharmacokinetic profiles of oral and intravenous psilocybin in man”. Pharm Acta Helv. 1997 June; 72(3):175-84. Model selection was performed by assessing visual fit to data and the respective model AIC's of a one compartment and two compartment IV PK model. These systemic human PK parameters were then used for human infusion simulations by simulating the PK profiles over a range of doses. The effect of two infusion rates, a faster followed by slower infusion rate was also investigated.
Pharm Acta Helv. 1997 June; 72(3):175-84. It is assumed that the generation of psilocin is instantaneous and complete once psilocybin is absorbed.
An IV two compartment model best described the IV data from FIG. 2. A two-compartment model gave a good description of the raw data capturing the Cmax and terminal phase well, FIG. 3. […]

Data set [2] is described as follows: Solubility assessment in excipients and vehicles. In kind it is physicochemical.

Regarding `CN(C)CCc1c[nH]c2cccc(O)c12` [psilocin, 4-hydroxy-N,N-dimethyltryptamine], in data set [1], the k12 is 0.176 min⁻¹ and the k21 was 0.0489 min⁻¹. The solubility entry in data set [2] (in DMSO and NMP) is given as “good solubility”. Further, the “solubility as a function of pH” value in data set [2] (initial trials, 30 mg/g in aqueous vehicles) was “higher solubility at acidic pH”.
On to `CN(C)CCc1c[nH]c2cccc(OP(=O)(O)O)c12` [psilocybin, [3-(2-dimethylaminoethyl)-1H-indol-4-yl]dihydrogen phosphate], for which the solubility entry in data set [2] (non-micronised, in all the excipients tested) is recorded as “poor solubility”.
